Measurements published in patent US20240208997A1, “CYCLIC BENZIMIDAZOLE DERIVATIVES AS CGAS INHIBITORS” (Boehringer Ingelheim International GmbH, priority 2022, published 2024).

Target: cGAS (Homo sapiens, UniProt Q8N884)
Experiment: Human cGAS enzyme assay (hcGAS IC50, in vitro), cGAMP formation by RapidFire MS
Assay type: biochemical
Set-up: HumancGAS (amino acid 1-522) with an N-terminal 6×-His-tag and SUMO-tag; 6xHis (N); SUMO (N); made in house; host or cells: E. coli BL21(DE3) pLysS
Conditions: Table 1; 45 bp dsDNA-activated enzyme
Protocol: 6.1 Method: Human cGAS Enzyme Assay (hcGAS IC50 (In Vitro))
Human cGAS enzyme was incubated in the presence of a 45 base pair double stranded DNA to activate the enzyme and GTP and ATP as substrates. Compound activity was determined by measuring the effect of compounds on the formation of the product of the enzyme reaction, cGAMP, which is measured by a mass spectrometry method.
HumancGAS (amino acid 1-522) with an N-terminal 6×-His-tag and SUMO-tag was expressed in E. coli BL21(DE3) pLysS (Novagen) cells for 16 h at 18° C. Cells were lysed in buffer containing 25 mM Tris (pH 8), 300 mM NaCl, 10 mM imidazole, 10% glycerol, protease inhibitor cocktail (cOmplete™, EDTA-free, Roche) and DNase (5 μg/mL). […] Purified protein was concentrated to 1.7 mg/mL and stored at −80° C.
Compounds were delivered in 10 mM DMSO solution, serially diluted and transferred to the 384 well assay plate (Greiner #781201) using an Echo acoustic dispenser. Typically, 8 concentrations were used with the highest concentration at 10 μM in the final assay volume followed by ^˜1:5 dilution steps. DMSO concentration was set to 1% in the final assay volume. The 384 well assay plate contained 22 test compounds (column 1-22), and DMSO in column 23 and 24.
After the compound transfer, 15 μL of the enzyme-DNA-working solution (12 nM cGAS, 0.32 μM 45base pair DNA in assay buffer, 10 mM Tris pH 7.5/10 mM KCl/5 mM MgCl2/1 mM DTT) were added to each well from column 1-23 via a MultiDrop Combi dispenser. In column 24, 15 μl of assay buffer without enzyme/DNA were added as a low control.
The plates were then pre-incubated for 60 min at room temperature.
Following that, 10 μL of GTP (ThermoFisher #R0461)-ATP (Promega #V915B) mix in assay buffer were added to the assay plate (columns 1-24, 30 μM final concentration each) using a Multidrop Combi.
The plates were incubated again for 90 min at room temperature.
Following the incubation, the reaction was stopped by 80 μL of 0,1% formic acid in assay buffer containing 5 nM cyclic-di-GMP (Sigma #SML1228) used as internal standard for the mass spectrometry. The total volume/well was 105 μL.
The plates were centrifuged at 4000 rpm, 4° C., for 5 min.
The RapidFire autosampler was coupled to a binary pump (Agilent 1290) and a Triple Quad 6500 (ABSciex, Toronto, Canada). […] Aspiration time: 250 ms; Load time: 3000 ms; Elute time: 3000 ms; Wash volume: 500 μL.
The MS was operated in positive ion mode with HESI ion source, with a source temperature of 550 C, curtain gas=35, gas 1=65, and gas 2=80. Unit mass resolution in SRM mode. The following transitions and MS parameters (DP: declustering potential and CE: collision energy) for cGAMP and DicGMP were determined:
Internal standard: cyclic-di-GMP at 690.1/540, DP=130, CE=30.
The formation of cGAMP was monitored and evaluated as ratio to cyclic-di-GMP.
Data Evaluation and Calculation:
For data evaluation and calculation, the measurement of the low control was set as 0% control and the measurement of the high control was set as 100% control. The IC50 values were calculated using the standard 4 parameter logistic regression formula. Calculation: [y=(a−d)/(1+(x/c)^b)+d], a=low value, d=high value; x=conc M; c=1C50 M; b=slope

Chain of cGAS (Q8N884 whole entry): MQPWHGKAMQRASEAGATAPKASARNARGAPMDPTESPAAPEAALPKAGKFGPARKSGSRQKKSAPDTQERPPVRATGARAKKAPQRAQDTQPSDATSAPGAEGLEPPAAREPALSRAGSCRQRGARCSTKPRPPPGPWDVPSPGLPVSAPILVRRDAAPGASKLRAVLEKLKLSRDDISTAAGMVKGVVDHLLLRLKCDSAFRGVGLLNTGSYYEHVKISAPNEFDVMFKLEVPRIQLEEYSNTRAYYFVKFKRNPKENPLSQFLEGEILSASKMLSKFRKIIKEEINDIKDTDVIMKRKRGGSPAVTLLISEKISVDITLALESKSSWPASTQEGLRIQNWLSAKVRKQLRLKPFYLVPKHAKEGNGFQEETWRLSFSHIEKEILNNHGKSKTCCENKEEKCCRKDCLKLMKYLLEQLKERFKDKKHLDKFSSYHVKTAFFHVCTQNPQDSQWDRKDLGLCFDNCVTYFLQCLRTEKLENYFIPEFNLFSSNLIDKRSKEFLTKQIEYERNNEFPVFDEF

| Compound | IC50 |
| --- | --- |
| C[C@H]1CN2CC[C@@H]1n1c(nc3cccc(Cl)c31)O[C@H]1C[C@@H](C(=O)O)N(C1)c1nc(nc3c1oc1ccccc13)CC(=O)NCCCC2=O (racemic) [Example 2.01, (12S,14S)-4-chloro-37-methyl-29,34-dioxo-11,18-dioxa-2,9,15,26,30,35,40-heptaazaoctacyclo[33.2.2.1^12,15.1^16,27.0^2,10.0^3,8.0^17,25.0^19,24]hentetraconta-3,5,7,9,16(40),17(25),19(24),20,22,26-decaene-14-carboxylic acid] | 6 nM |
| C[C@H]1CN2CC[C@@H]1n1c(nc3ccccc31)O[C@H]1C[C@@H](C(=O)O)N(C1)c1nc(nc3c1oc1cc(F)ccc13)C(F)(F)CCCCCC2=O [Example 1.14] | 4.1 nM |
| C[C@H]1CN2CC[C@@H]1n1c(nc3ccccc31)O[C@H]1C[C@@H](C(=O)O)N(C1)c1nc(nc3c1oc1ccccc13)CCCCCCC2=O (racemic) [Example 1.24] | 18 nM |
